According to ChEMBL document CHEMBL1201862, “PubChem BioAssay data set” (2004):
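Protocol summary: plate cells (96-well), add compound at 5 concentrations, incubate 48 h, interpolate endpoints linearly. Abbreviation: GI50, concentration required for 50% inhibition of growth.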 Active and inactive are the calls of the source. Rule as the data show it: active = GI50 up to about 1.1 µM and inactive = higher.

Legend:
Assay in all cases: growth of human tumour cells (NCI), 48 h
[1] = system: UO-31
[2] = system: SF-539
[3] = system: HCT-15
[4] = system: LOX IMVI
[5] = system: SW-620
[6] = system: HT-29
[7] = system: NCI-H522
[8] = system: NCI/ADR-RES
[9] = system: MDA-MB-231
[10] = system: OVCAR-5
[11] = system: A549
[12] = system: A498
[13] = system: Hs-578T
[14] = system: NCI-H23
[15] = system: T47D
[16] = system: EKVX
[17] = system: SN12C
[18] = system: K562
[19] = system: SK-MEL-5
[20] = system: U-251
[21] = system: SF-295
[22] = system: RXF 393
[23] = system: DU-145
[24] = system: OVCAR-8
[25] = system: UACC-62
[26] = system: HL-60
[27] = system: SK-MEL-2
[28] = system: NCI-H460
[29] = system: HCC 2998
[30] = system: HOP-92
[31] = system: M14
[32] = system: CAKI-1
[33] = system: CCRF-CEM
[34] = system: SNB-19
[35] = system: NCI-H226
[36] = system: RPMI-8226
[37] = system: SR
[38] = system: IGROV-1
[39] = system: MDA-MB-435
[40] = system: OVCAR-4
[41] = system: HOP-62
[42] = system: SF-268
[43] = system: COLO 205
[44] = system: HCT-116
[45] = system: MCF7
[46] = system: PC-3
[47] = system: MOLT-4
[48] = system: SK-OV-3
[49] = system: KM12
[50] = system: TK-10
[51] = system: UACC-257
[52] = system: BT-549
[53] = system: MDA-N
[54] = system: ACHN
[55] = system: SNB-75
[56] = system: 786-0
[57] = system: OVCAR-3
[58] = system: SK-MEL-28
[59] = system: Malme-3M

Measured: GI50

CC(=O)OCC1OC(O[C@H]2C=C[C@@H](C(=O)OCc3ccccc3)n3c(=O)n(-c4ccccc4)c(=O)n32)C(OC(C)=O)C(OC(C)=O)C1OC(C)=O (stereo partly drawn)
inactive: [1] 1.57 µM | [2] 1.82 µM | [4] 1.2 µM | [5] 1.77 µM | [6] 1.56 µM | [8] 3.2 µM | [9] 1.89 µM | [10] 2.23 µM | [11] 17.2 µM | [12] 2.55 µM | [13] 1.99 µM | [14] 2.96 µM | [15] 2.62 µM | [16] 1.95 µM | [17] 1.94 µM | [18] 1.63 µM | [19] 1.14 µM | [20] 2.14 µM | [21] 10.6 µM | [22] 2.24 µM | [23] 2.61 µM | [24] 2.48 µM | [25] 1.59 µM | [27] 4.66 µM | [28] 1.58 µM | [29] 1.73 µM | [30] 1.96 µM | [31] 1.78 µM | [32] 1.48 µM | [34] 15.7 µM | [35] 4.55 µM | [37] 1.3 µM | [38] 2.34 µM | [39] 2.07 µM | [40] 2.54 µM | [41] 5.01 µM | [42] 1.78 µM | [43] 2 µM | [44] 2.22 µM | [45] 1.17 µM | [46] 3.69 µM | [47] 2.09 µM | [48] 18.7 µM | [49] 3.27 µM | [50] 2.02 µM | [51] 1.92 µM | [52] 1.8 µM | [53] 2.77 µM | [54] 1.71 µM | [55] 10.9 µM | [56] 1.6 µM | [57] 1.79 µM | [58] 1.86 µM
0.741 µM: [3]
active: [7] 0.986 µM | [26] 0.262 µM | [33] 0.851 µM | [36] 0.879 µM

CC(C)(C)c1ccc(O)c(C[N+](C)(C)C)c1
> 100 µM: [3]
inactive: [1] > 100 µM | [2] > 100 µM | [4] > 100 µM | [5] > 100 µM | [6] > 100 µM | [7] 34.3 µM | [8] > 100 µM | [9] > 100 µM | [10] > 100 µM | [11] > 100 µM | [12] 47.5 µM | [13] > 100 µM | [14] > 100 µM | [15] > 100 µM | [16] 93.1 µM | [17] > 100 µM | [18] 95.5 µM | [19] 49.4 µM | [20] > 100 µM | [21] > 100 µM | [22] > 100 µM | [23] > 100 µM | [24] > 100 µM | [25] > 100 µM | [27] > 100 µM | [28] > 100 µM | [30] > 100 µM | [31] > 100 µM | [32] > 100 µM | [33] > 100 µM | [34] > 100 µM | [36] 63.2 µM | [37] > 100 µM | [38] > 100 µM | [39] > 100 µM | [40] > 100 µM | [41] > 100 µM | [42] > 100 µM | [43] > 100 µM | [59] > 100 µM | [44] > 100 µM | [45] > 100 µM | [46] > 100 µM | [47] > 100 µM | [48] > 100 µM | [49] > 100 µM | [50] > 100 µM | [52] > 100 µM | [53] > 100 µM | [54] > 100 µM | [55] > 100 µM | [56] > 100 µM | [57] 68.9 µM | [58] > 100 µM
